Assay results reported in the NIST ThermoML archive (doi:10.1021/je400783h).
± gives the expanded uncertainty stated by the source.

Details: for mass density / vapor or sublimation pressure / viscosity / speed of sound: Liquid; for vapor or sublimation pressure: Ebulliometric method (Recirculating still); for surface tension liquid-gas: Drop volume; for viscosity: Capillary tube (Ostwald / Ubbelohde) method; for speed of sound: Pulse-echo method

Cc1ccc(C=O)o1 [5-methylfurfural]
Details | mass density [kg/m3] | speed of sound [m/s] | viscosity [mPa·s]
313.15 K, 7500 kPa | 1093.64 ± 0.62 | – | –
313.15 K, 10000 kPa | 1095.27 ± 0.66 | – | –
313.15 K, 20000 kPa | 1101.5 ± 0.84 | – | –
313.15 K, 30000 kPa | 1107.37 ± 1 | – | –
313.15 K, 40000 kPa | 1112.86 ± 1.2 | – | –
313.15 K, 50000 kPa | 1118.1 ± 1.5 | – | –
313.15 K, 60000 kPa | 1123.12 ± 1.7 | – | –
315.65 K, 101.33 kPa | – | 1383.3 ± 1.2 | 1.402 ± 0.03
318.15 K, 100 kPa | 1083.33 ± 0.49 | – | –
318.15 K, 101.33 kPa | – | 1374.3 ± 1.2 | 1.345 ± 0.029
318.15 K, 2500 kPa | 1085.42 ± 0.53 | – | –
318.15 K, 5000 kPa | 1087.05 ± 0.56 | – | –
318.15 K, 7500 kPa | 1088.71 ± 0.6 | – | –
318.15 K, 10000 kPa | 1090.41 ± 0.64 | – | –
318.15 K, 20000 kPa | 1096.72 ± 0.81 | – | –
318.15 K, 30000 kPa | 1102.74 ± 1 | – | –
318.15 K, 40000 kPa | 1108.39 ± 1.2 | – | –
318.15 K, 50000 kPa | 1113.73 ± 1.4 | – | –
318.15 K, 60000 kPa | 1118.89 ± 1.7 | – | –
320.65 K, 101.33 kPa | – | 1365.3 ± 1.2 | 1.292 ± 0.028
323.15 K, 100 kPa | 1078.33 ± 0.48 | – | –
323.15 K, 101.33 kPa | – | 1356.1 ± 1.2 | 1.241 ± 0.026
323.15 K, 2500 kPa | 1080.39 ± 0.52 | – | –
323.15 K, 5000 kPa | 1082.17 ± 0.55 | – | –
323.15 K, 7500 kPa | 1083.95 ± 0.59 | – | –
323.15 K, 10000 kPa | 1085.56 ± 0.63 | – | –
323.15 K, 20000 kPa | 1092.07 ± 0.79 | – | –
323.15 K, 30000 kPa | 1098.22 ± 0.97 | – | –
323.15 K, 40000 kPa | 1104.01 ± 1.2 | – | –
323.15 K, 50000 kPa | 1109.47 ± 1.4 | – | –
323.15 K, 60000 kPa | 1114.68 ± 1.6 | – | –
325.65 K, 101.33 kPa | – | 1347.3 ± 1.2 | 1.202 ± 0.026
328.15 K, 100 kPa | 1073.32 ± 0.48 | – | –
328.15 K, 101.33 kPa | – | 1338.4 ± 1.2 | 1.151 ± 0.025
328.15 K, 2500 kPa | 1075.43 ± 0.51 | – | –
328.15 K, 5000 kPa | 1077.24 ± 0.54 | – | –
328.15 K, 7500 kPa | 1079.03 ± 0.57 | – | –
328.15 K, 10000 kPa | 1080.7 ± 0.61 | – | –
328.15 K, 20000 kPa | 1087.38 ± 0.77 | – | –
328.15 K, 30000 kPa | 1093.64 ± 0.94 | – | –
328.15 K, 40000 kPa | 1099.55 ± 1.1 | – | –
328.15 K, 50000 kPa | 1105.14 ± 1.3 | – | –
328.15 K, 60000 kPa | 1110.48 ± 1.6 | – | –
330.65 K, 101.33 kPa | – | 1329.5 ± 1.2 | 1.11 ± 0.024
333.15 K, 100 kPa | 1068.3 ± 0.46 | – | –
333.15 K, 101.33 kPa | – | 1320.5 ± 1.2 | 1.072 ± 0.023
333.15 K, 2500 kPa | 1070.05 ± 0.49 | – | –
333.15 K, 5000 kPa | 1072.29 ± 0.53 | – | –
333.15 K, 7500 kPa | 1074.1 ± 0.56 | – | –
333.15 K, 10000 kPa | 1075.84 ± 0.59 | – | –
333.15 K, 20000 kPa | 1082.66 ± 0.74 | – | –
333.15 K, 30000 kPa | 1089.1 ± 0.91 | – | –
333.15 K, 40000 kPa | 1095.12 ± 1.1 | – | –
333.15 K, 50000 kPa | 1100.86 ± 1.3 | – | –
333.15 K, 60000 kPa | 1106.23 ± 1.5 | – | –
335.65 K, 101.33 kPa | – | 1311.6 ± 1.2 | 1.039 ± 0.022
338.15 K, 100 kPa | 1063.25 ± 0.46 | – | –
338.15 K, 101.33 kPa | – | 1302.8 ± 1.2 | 1.002 ± 0.021
338.15 K, 2500 kPa | 1065.43 ± 0.48 | – | –
338.15 K, 5000 kPa | 1067.33 ± 0.51 | – | –
338.15 K, 7500 kPa | 1069.06 ± 0.54 | – | –
338.15 K, 10000 kPa | 1070.99 ± 0.58 | – | –
338.15 K, 20000 kPa | 1077.96 ± 0.72 | – | –
338.15 K, 30000 kPa | 1084.52 ± 0.88 | – | –
338.15 K, 40000 kPa | 1090.69 ± 1.1 | – | –
338.15 K, 50000 kPa | 1096.51 ± 1.3 | – | –
338.15 K, 60000 kPa | 1102.02 ± 1.5 | – | –

Details | surface tension liquid-gas [mN/m] | vapor or sublimation pressure [kPa]
313.15 K | – | 0.2 ± 0.1
315.65 K | 38.44 ± 0.27 | –
318.15 K | 38.13 ± 0.27 | 0.3 ± 0.1
320.65 K | 37.78 ± 0.27 | –
323.15 K | 37.51 ± 0.27 | 0.4 ± 0.1
325.65 K | 37.26 ± 0.27 | –
328.15 K | 36.91 ± 0.27 | 0.54 ± 0.1
330.65 K | 36.54 ± 0.26 | –
333.15 K | 36.21 ± 0.26 | 0.74 ± 0.1
335.65 K | 35.92 ± 0.26 | –
338.15 K | 35.57 ± 0.26 | 0.97 ± 0.1
343.15 K | – | 1.3 ± 0.1
348.15 K | – | 1.66 ± 0.1
353.15 K | – | 2.17 ± 0.1
358.15 K | – | 2.76 ± 0.1
363.15 K | – | 3.52 ± 0.1
368.15 K | – | 4.4 ± 0.1
373.15 K | – | 5.52 ± 0.1
378.15 K | – | 6.79 ± 0.1
383.15 K | – | 8.43 ± 0.1
388.15 K | – | 10.2 ± 0.1
393.15 K | – | 12.31 ± 0.1
398.15 K | – | 15 ± 0.1
403.15 K | – | 18 ± 0.1
408.15 K | – | 21.27 ± 0.1
413.15 K | – | 25.33 ± 0.11
418.15 K | – | 30.01 ± 0.11
423.15 K | – | 34.95 ± 0.11
428.15 K | – | 40.57 ± 0.11
433.15 K | – | 47.43 ± 0.12
438.15 K | – | 55.14 ± 0.12
443.15 K | – | 63.39 ± 0.12
448.15 K | – | 72.37 ± 0.13
453.15 K | – | 83.4 ± 0.14

101.33 kPa, Vibrating tube method
Details | mass density [kg/m3]
315.65 K | 1085.82 ± 0.31
318.15 K | 1083.33 ± 0.31
320.65 K | 1080.83 ± 0.31
323.15 K | 1078.33 ± 0.31
325.65 K | 1075.83 ± 0.31
328.15 K | 1073.32 ± 0.3
330.65 K | 1070.81 ± 0.3
333.15 K | 1068.3 ± 0.3
335.65 K | 1065.78 ± 0.3
338.15 K | 1063.25 ± 0.3
